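All cell lines were grown in 96-well plates and treated with compound for 48 hours. The concentration for full growth arrest is given as TGI.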
tested on: NCI-H460 lung; assay: inhibition of tumour cell growth, NCI panel, 48 h

Q: How did the TGI turn out when `COC(=O)c1cc2c(cc1CC(Cc1ccc3c(c1)CCCC3)C(=O)OC)CCCC2` (stereo not given) was run?
A: > 100 µM

Q: With `COc1cc(-c2nc3ccccn3c2/N=C/c2cc(Br)cc(Br)c2O)ccc1O` as the compound, how does the TGI read?
A: > 100 µM

Q: With `CCCCCCCCCCCC(=O)OCC(C[As](=O)(O)O)OC(=O)CCCCCCCCCCC` (stereo not given) as the compound, how does the TGI read?
A: 13.3 µM

Q: Which TGI does the source give for `CCC(=O)Oc1ccc2c(c1)c(=O)c1c(NCCCN(C)C)ccc3nnn2c31` here?
A: 9.23 µM

Q: Which TGI does the source give for `CC(C)=CCC(O)[C@](C)(O)[C@H]1[C@H](O)C[C@@]2(C)[C@@H]3CCc4cc(O)c(OC5OC(CO)C(O)C(O)C5O)cc4C3(C)C(=O)C[C@]12C` (stereo not given in full) here?
A: > 100 µM

Q: `Cc1ccc(S(=O)(=O)N/N=C2/CCCOC2)cc1` was tested. Which TGI did it give?
A: > 100 µM

Q: For `C[N+]1(C)CCc2cc(O)c(O)cc2C1Cc1ccc(O)c(O)c1` (stereo not given), which TGI is on record?
A: > 100 µM

tested on: NCI-H522 lung; assay: inhibition of tumour cell growth, NCI panel, 48 h

Q: Which TGI does the source give for `COC(=O)c1cc2c(cc1CC(Cc1ccc3c(c1)CCCC3)C(=O)OC)CCCC2` (stereo not given) here?
A: > 100 µM

Q: For `COc1cc(-c2nc3ccccn3c2/N=C/c2cc(Br)cc(Br)c2O)ccc1O`, which TGI is on record?
A: 58.2 µM

Q: Which TGI does the source give for `CCCCCCCCCCCC(=O)OCC(C[As](=O)(O)O)OC(=O)CCCCCCCCCCC` (stereo not given) here?
A: 4.33 µM

Q: `CCC(=O)Oc1ccc2c(c1)c(=O)c1c(NCCCN(C)C)ccc3nnn2c31` was tested. Which TGI did it give?
A: 9.06 µM

Q: For `CC(C)=CCC(O)[C@](C)(O)[C@H]1[C@H](O)C[C@@]2(C)[C@@H]3CCc4cc(O)c(OC5OC(CO)C(O)C(O)C5O)cc4C3(C)C(=O)C[C@]12C` (stereo not given in full), which TGI is on record?
A: > 100 µM

Q: With `Cc1ccc(S(=O)(=O)N/N=C2/CCCOC2)cc1` as the compound, how does the TGI read?
A: > 100 µM

Q: `C[N+]1(C)CCc2cc(O)c(O)cc2C1Cc1ccc(O)c(O)c1` (stereo not given) was tested. Which TGI did it give?
A: 58.4 µM

tested on: OVCAR-3 ovarian; assay: inhibition of tumour cell growth, NCI panel, 48 h

Q: Which TGI does the source give for `COC(=O)c1cc2c(cc1CC(Cc1ccc3c(c1)CCCC3)C(=O)OC)CCCC2` (stereo not given) here?
A: > 100 µM

Q: Which TGI does the source give for `COc1cc(-c2nc3ccccn3c2/N=C/c2cc(Br)cc(Br)c2O)ccc1O` here?
A: 39 µM

Q: For `CCCCCCCCCCCC(=O)OCC(C[As](=O)(O)O)OC(=O)CCCCCCCCCCC` (stereo not given), which TGI is on record?
A: 22.8 µM

Q: `CCC(=O)Oc1ccc2c(c1)c(=O)c1c(NCCCN(C)C)ccc3nnn2c31` was tested. Which TGI did it give?
A: 21 µM

Q: How did the TGI turn out when `CC(C)=CCC(O)[C@](C)(O)[C@H]1[C@H](O)C[C@@]2(C)[C@@H]3CCc4cc(O)c(OC5OC(CO)C(O)C(O)C5O)cc4C3(C)C(=O)C[C@]12C` (stereo not given in full) was run?
A: > 100 µM

Q: With `Cc1ccc(S(=O)(=O)N/N=C2/CCCOC2)cc1` as the compound, how does the TGI read?
A: > 100 µM

Q: With `C[N+]1(C)CCc2cc(O)c(O)cc2C1Cc1ccc(O)c(O)c1` (stereo not given) as the compound, how does the TGI read?
A: > 100 µM

tested on: OVCAR-8 ovarian; assay: inhibition of tumour cell growth, NCI panel, 48 h

Q: Which TGI does the source give for `COC(=O)c1cc2c(cc1CC(Cc1ccc3c(c1)CCCC3)C(=O)OC)CCCC2` (stereo not given) here?
A: > 100 µM

Q: `COc1cc(-c2nc3ccccn3c2/N=C/c2cc(Br)cc(Br)c2O)ccc1O` was tested. Which TGI did it give?
A: 61.8 µM

Q: How did the TGI turn out when `CCCCCCCCCCCC(=O)OCC(C[As](=O)(O)O)OC(=O)CCCCCCCCCCC` (stereo not given) was run?
A: 24.8 µM

Q: Which TGI does the source give for `CCC(=O)Oc1ccc2c(c1)c(=O)c1c(NCCCN(C)C)ccc3nnn2c31` here?
A: 15.1 µM

Q: With `CC(C)=CCC(O)[C@](C)(O)[C@H]1[C@H](O)C[C@@]2(C)[C@@H]3CCc4cc(O)c(OC5OC(CO)C(O)C(O)C5O)cc4C3(C)C(=O)C[C@]12C` (stereo not given in full) as the compound, how does the TGI read?
A: > 100 µM

Q: `Cc1ccc(S(=O)(=O)N/N=C2/CCCOC2)cc1` was tested. Which TGI did it give?
A: > 100 µM

Q: How did the TGI turn out when `C[N+]1(C)CCc2cc(O)c(O)cc2C1Cc1ccc(O)c(O)c1` (stereo not given) was run?
A: > 100 µM

tested on: SK-MEL-5 melanoma; assay: inhibition of tumour cell growth, NCI panel, 48 h

Q: Which TGI does the source give for `COC(=O)c1cc2c(cc1CC(Cc1ccc3c(c1)CCCC3)C(=O)OC)CCCC2` (stereo not given) here?
A: > 100 µM

Q: Which TGI does the source give for `COc1cc(-c2nc3ccccn3c2/N=C/c2cc(Br)cc(Br)c2O)ccc1O` here?
A: 72.4 µM

Q: For `CCCCCCCCCCCC(=O)OCC(C[As](=O)(O)O)OC(=O)CCCCCCCCCCC` (stereo not given), which TGI is on record?
A: 3.64 µM

Q: How did the TGI turn out when `CCC(=O)Oc1ccc2c(c1)c(=O)c1c(NCCCN(C)C)ccc3nnn2c31` was run?
A: 10.3 µM

Q: `CC(C)=CCC(O)[C@](C)(O)[C@H]1[C@H](O)C[C@@]2(C)[C@@H]3CCc4cc(O)c(OC5OC(CO)C(O)C(O)C5O)cc4C3(C)C(=O)C[C@]12C` (stereo not given in full) was tested. Which TGI did it give?
A: > 100 µM

Q: `Cc1ccc(S(=O)(=O)N/N=C2/CCCOC2)cc1` was tested. Which TGI did it give?
A: > 100 µM

Q: How did the TGI turn out when `C[N+]1(C)CCc2cc(O)c(O)cc2C1Cc1ccc(O)c(O)c1` (stereo not given) was run?
A: > 100 µM

tested on: SNB-19 CNS; assay: inhibition of tumour cell growth, NCI panel, 48 h

Q: `COC(=O)c1cc2c(cc1CC(Cc1ccc3c(c1)CCCC3)C(=O)OC)CCCC2` (stereo not given) was tested. Which TGI did it give?
A: > 100 µM

Q: `COc1cc(-c2nc3ccccn3c2/N=C/c2cc(Br)cc(Br)c2O)ccc1O` was tested. Which TGI did it give?
A: 75.6 µM

Q: How did the TGI turn out when `CCCCCCCCCCCC(=O)OCC(C[As](=O)(O)O)OC(=O)CCCCCCCCCCC` (stereo not given) was run?
A: 9.38 µM

Q: For `CCC(=O)Oc1ccc2c(c1)c(=O)c1c(NCCCN(C)C)ccc3nnn2c31`, which TGI is on record?
A: 17.3 µM

Q: How did the TGI turn out when `CC(C)=CCC(O)[C@](C)(O)[C@H]1[C@H](O)C[C@@]2(C)[C@@H]3CCc4cc(O)c(OC5OC(CO)C(O)C(O)C5O)cc4C3(C)C(=O)C[C@]12C` (stereo not given in full) was run?
A: > 100 µM

Q: How did the TGI turn out when `Cc1ccc(S(=O)(=O)N/N=C2/CCCOC2)cc1` was run?
A: > 100 µM

Q: `C[N+]1(C)CCc2cc(O)c(O)cc2C1Cc1ccc(O)c(O)c1` (stereo not given) was tested. Which TGI did it give?
A: > 100 µM

tested on: T-47D breast; assay: inhibition of tumour cell growth, NCI panel, 48 h

Q: With `COC(=O)c1cc2c(cc1CC(Cc1ccc3c(c1)CCCC3)C(=O)OC)CCCC2` (stereo not given) as the compound, how does the TGI read?
A: > 100 µM

Q: How did the TGI turn out when `COc1cc(-c2nc3ccccn3c2/N=C/c2cc(Br)cc(Br)c2O)ccc1O` was run?
A: 74.3 µM

Q: How did the TGI turn out when `CCCCCCCCCCCC(=O)OCC(C[As](=O)(O)O)OC(=O)CCCCCCCCCCC` (stereo not given) was run?
A: 42.3 µM

Q: How did the TGI turn out when `CCC(=O)Oc1ccc2c(c1)c(=O)c1c(NCCCN(C)C)ccc3nnn2c31` was run?
A: 31 µM

Q: `CC(C)=CCC(O)[C@](C)(O)[C@H]1[C@H](O)C[C@@]2(C)[C@@H]3CCc4cc(O)c(OC5OC(CO)C(O)C(O)C5O)cc4C3(C)C(=O)C[C@]12C` (stereo not given in full) was tested. Which TGI did it give?
A: > 100 µM

Q: With `Cc1ccc(S(=O)(=O)N/N=C2/CCCOC2)cc1` as the compound, how does the TGI read?
A: > 100 µM

Q: `C[N+]1(C)CCc2cc(O)c(O)cc2C1Cc1ccc(O)c(O)c1` (stereo not given) was tested. Which TGI did it give?
A: 54.7 µM

tested on: TK-10 renal; assay: inhibition of tumour cell growth, NCI panel, 48 h

Q: Which TGI does the source give for `COC(=O)c1cc2c(cc1CC(Cc1ccc3c(c1)CCCC3)C(=O)OC)CCCC2` (stereo not given) here?
A: > 100 µM

Q: How did the TGI turn out when `COc1cc(-c2nc3ccccn3c2/N=C/c2cc(Br)cc(Br)c2O)ccc1O` was run?
A: 67.8 µM

Q: `CCCCCCCCCCCC(=O)OCC(C[As](=O)(O)O)OC(=O)CCCCCCCCCCC` (stereo not given) was tested. Which TGI did it give?
A: 30.6 µM

Q: With `CCC(=O)Oc1ccc2c(c1)c(=O)c1c(NCCCN(C)C)ccc3nnn2c31` as the compound, how does the TGI read?
A: 15.5 µM

Q: How did the TGI turn out when `CC(C)=CCC(O)[C@](C)(O)[C@H]1[C@H](O)C[C@@]2(C)[C@@H]3CCc4cc(O)c(OC5OC(CO)C(O)C(O)C5O)cc4C3(C)C(=O)C[C@]12C` (stereo not given in full) was run?
A: > 100 µM

Q: For `Cc1ccc(S(=O)(=O)N/N=C2/CCCOC2)cc1`, which TGI is on record?
A: > 100 µM

Q: `C[N+]1(C)CCc2cc(O)c(O)cc2C1Cc1ccc(O)c(O)c1` (stereo not given) was tested. Which TGI did it give?
A: > 100 µM

tested on: UACC-257 melanoma; assay: inhibition of tumour cell growth, NCI panel, 48 h

Q: For `COC(=O)c1cc2c(cc1CC(Cc1ccc3c(c1)CCCC3)C(=O)OC)CCCC2` (stereo not given), which TGI is on record?
A: > 100 µM

Q: `COc1cc(-c2nc3ccccn3c2/N=C/c2cc(Br)cc(Br)c2O)ccc1O` was tested. Which TGI did it give?
A: 75.2 µM

Q: How did the TGI turn out when `CCCCCCCCCCCC(=O)OCC(C[As](=O)(O)O)OC(=O)CCCCCCCCCCC` (stereo not given) was run?
A: 21.9 µM

Q: For `CCC(=O)Oc1ccc2c(c1)c(=O)c1c(NCCCN(C)C)ccc3nnn2c31`, which TGI is on record?
A: 23.4 µM

Q: With `CC(C)=CCC(O)[C@](C)(O)[C@H]1[C@H](O)C[C@@]2(C)[C@@H]3CCc4cc(O)c(OC5OC(CO)C(O)C(O)C5O)cc4C3(C)C(=O)C[C@]12C` (stereo not given in full) as the compound, how does the TGI read?
A: > 100 µM

Q: With `Cc1ccc(S(=O)(=O)N/N=C2/CCCOC2)cc1` as the compound, how does the TGI read?
A: > 100 µM

Q: Which TGI does the source give for `C[N+]1(C)CCc2cc(O)c(O)cc2C1Cc1ccc(O)c(O)c1` (stereo not given) here?
A: 86.9 µM

tested on: UACC-62 melanoma; assay: inhibition of tumour cell growth, NCI panel, 48 h

Q: With `COC(=O)c1cc2c(cc1CC(Cc1ccc3c(c1)CCCC3)C(=O)OC)CCCC2` (stereo not given) as the compound, how does the TGI read?
A: > 100 µM

Q: How did the TGI turn out when `COc1cc(-c2nc3ccccn3c2/N=C/c2cc(Br)cc(Br)c2O)ccc1O` was run?
A: 72.4 µM

Q: For `CCCCCCCCCCCC(=O)OCC(C[As](=O)(O)O)OC(=O)CCCCCCCCCCC` (stereo not given), which TGI is on record?
A: 3.95 µM

Q: How did the TGI turn out when `CCC(=O)Oc1ccc2c(c1)c(=O)c1c(NCCCN(C)C)ccc3nnn2c31` was run?
A: 23.5 µM

Q: With `CC(C)=CCC(O)[C@](C)(O)[C@H]1[C@H](O)C[C@@]2(C)[C@@H]3CCc4cc(O)c(OC5OC(CO)C(O)C(O)C5O)cc4C3(C)C(=O)C[C@]12C` (stereo not given in full) as the compound, how does the TGI read?
A: > 100 µM

Q: For `Cc1ccc(S(=O)(=O)N/N=C2/CCCOC2)cc1`, which TGI is on record?
A: > 100 µM

Q: Which TGI does the source give for `C[N+]1(C)CCc2cc(O)c(O)cc2C1Cc1ccc(O)c(O)c1` (stereo not given) here?
A: > 100 µM

Source: PubChem BioAssay (NCI)
